Columns and labels:
Assay in all cases: KinaseProfiler off-target kinase profiling
Format in all cases: biochemical
Conditions in all cases: 10 μM, ATP near Km
[1] = target: T1, MKK4_m (Mus musculus, UniProt P47809)
T1 construct: purchased Millipore, Inc. (KinaseProfiler service)
Outline: (§1)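 The compound was screened once at 10 μM against the full kinase panel, in duplicate. ATP was held near the Km for every kinase, and the averaged duplicate data are given as percent of control.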

[2] = target: T2, CDK1/cyclinB (Homo sapiens, UniProt P06493)
T2 construct: purchased Millipore, Inc. (KinaseProfiler service)
Outline: as §1

[3] = target: T3, Haspin (Homo sapiens, UniProt Q8TF76)
T3 construct: purchased Millipore, Inc. (KinaseProfiler service)
Outline: as §1

[4] = target: T4, IRAK4 (Homo sapiens, UniProt Q9NWZ3)
T4 construct: purchased Millipore, Inc. (KinaseProfiler service)
Outline: as §1

[5] = target: T5, LOK (Homo sapiens, UniProt O94804)
T5 construct: purchased Millipore, Inc. (KinaseProfiler service)
Outline: as §1

[6] = target: T6, CK2 (Homo sapiens, UniProt P68400)
T6 construct: purchased Millipore, Inc. (KinaseProfiler service)
Outline: as §1

[7] = target: T7, PKCdelta (Homo sapiens, UniProt Q05655)
T7 construct: purchased Millipore, Inc. (KinaseProfiler service)
Outline: as §1

[8] = target: T8, MSK1 (Homo sapiens, UniProt O75582)
T8 construct: purchased Millipore, Inc. (KinaseProfiler service)
Outline: as §1

[9] = target: T9, GSK3beta (Homo sapiens, UniProt P49841)
T9 construct: purchased Millipore, Inc. (KinaseProfiler service)
Outline: as §1

[10] = target: T10, IRR (Homo sapiens, UniProt P14616)
T10 construct: purchased Millipore, Inc. (KinaseProfiler service)
Outline: as §1

[11] = target: T11, Fms (Homo sapiens, UniProt P07333)
T11 construct: purchased Millipore, Inc. (KinaseProfiler service)
Outline: as §1

[12] = target: T12, FGFR1 (Homo sapiens, UniProt P11362)
T12 construct: purchased Millipore, Inc. (KinaseProfiler service)
Outline: as §1

[13] = target: T13, PAK5 (Homo sapiens, UniProt Q9P286)
T13 construct: purchased Millipore, Inc. (KinaseProfiler service)
Outline: as §1

[14] = target: T14, PKD2 (Homo sapiens, UniProt Q9BZL6)
T14 construct: purchased Millipore, Inc. (KinaseProfiler service)
Outline: as §1

[15] = target: T15, MAP3K5 (Homo sapiens, UniProt Q99683)
T15 construct: purchased Millipore, Inc. (KinaseProfiler service)
Outline: as §1

[16] = target: T16, CDK3/cyclinE (Homo sapiens, UniProt Q00526)
T16 construct: purchased Millipore, Inc. (KinaseProfiler service)
Outline: as §1

[17] = target: T17, ALK4 (Homo sapiens, UniProt P36896)
T17 construct: purchased Millipore, Inc. (KinaseProfiler service)
Outline: as §1

[18] = target: T18, FAK (Homo sapiens, UniProt Q05397)
T18 construct: purchased Millipore, Inc. (KinaseProfiler service)
Outline: as §1

[19] = target: T19, CAMK2g (Homo sapiens, UniProt Q13555)
T19 construct: purchased Millipore, Inc. (KinaseProfiler service)
Outline: as §1

[20] = target: T20, MARK2 (Homo sapiens, UniProt Q7KZI7)
T20 construct: purchased Millipore, Inc. (KinaseProfiler service)
Outline: as §1

[21] = target: T21, EphA2 (Homo sapiens, UniProt P29317)
T21 construct: purchased Millipore, Inc. (KinaseProfiler service)
Outline: as §1

[22] = target: T22, Pim-1 (Homo sapiens, UniProt P11309)
T22 construct: purchased Millipore, Inc. (KinaseProfiler service)
Outline: as §1

[23] = target: T23, DRAK1 (Homo sapiens, UniProt Q9UEE5)
T23 construct: purchased Millipore, Inc. (KinaseProfiler service)
Outline: as §1

[24] = target: T24, CAMK2b (Homo sapiens, UniProt Q13554)
T24 construct: purchased Millipore, Inc. (KinaseProfiler service)
Outline: as §1

[25] = target: T25, MST3 (Homo sapiens, UniProt Q9Y6E0)
T25 construct: purchased Millipore, Inc. (KinaseProfiler service)
Outline: as §1

[26] = target: T26, Ron (Homo sapiens, UniProt Q04912)
T26 construct: purchased Millipore, Inc. (KinaseProfiler service)
Outline: as §1

[27] = target: T27, EphA3 (Homo sapiens, UniProt P29320)
T27 construct: purchased Millipore, Inc. (KinaseProfiler service)
Outline: as §1

[28] = target: T28, NLK (Homo sapiens, UniProt Q9UBE8)
T28 construct: purchased Millipore, Inc. (KinaseProfiler service)
Outline: as §1

[29] = target: T29, RIPK2 (Homo sapiens, UniProt O43353)
T29 construct: purchased Millipore, Inc. (KinaseProfiler service)
Outline: as §1

[30] = target: T30, PKCepsilon (Homo sapiens, UniProt Q02156)
T30 construct: purchased Millipore, Inc. (KinaseProfiler service)
Outline: as §1

[31] = target: T31, CHK2 (Homo sapiens, UniProt O96017)
T31 construct: purchased Millipore, Inc. (KinaseProfiler service)
Outline: as §1

[32] = target: T32, Ros (Homo sapiens, UniProt P08922)
T32 construct: purchased Millipore, Inc. (KinaseProfiler service)
Outline: as §1

[33] = target: T33, MST1 (Homo sapiens, UniProt Q13043)
T33 construct: purchased Millipore, Inc. (KinaseProfiler service)
Outline: as §1

[34] = target: T34, CDK2/cyclinA (Homo sapiens, UniProt P24941)
T34 construct: purchased Millipore, Inc. (KinaseProfiler service)
Outline: as §1

[35] = target: T35, CSK (Homo sapiens, UniProt P41240)
T35 construct: purchased Millipore, Inc. (KinaseProfiler service)
Outline: as §1

[36] = target: T36, TAO2 (Homo sapiens, UniProt Q9UL54)
T36 construct: purchased Millipore, Inc. (KinaseProfiler service)
Outline: as §1

[37] = target: T37, MSK2 (Homo sapiens, UniProt O75676)
T37 construct: purchased Millipore, Inc. (KinaseProfiler service)
Outline: as §1

[38] = target: T38, CAMK1 (Homo sapiens, UniProt Q14012)
T38 construct: purchased Millipore, Inc. (KinaseProfiler service)
Outline: as §1

[39] = target: T39, CK1gamma1 (Homo sapiens, UniProt Q9HCP0)
T39 construct: purchased Millipore, Inc. (KinaseProfiler service)
Outline: as §1

[40] = target: T40, AKT1 (Homo sapiens, UniProt P31749)
T40 construct: purchased Millipore, Inc. (KinaseProfiler service)
Outline: as §1

[41] = target: T41, ULK2 (Homo sapiens, UniProt Q8IYT8)
T41 construct: purchased Millipore, Inc. (KinaseProfiler service)
Outline: as §1

T19 sequence (Q13555 whole entry): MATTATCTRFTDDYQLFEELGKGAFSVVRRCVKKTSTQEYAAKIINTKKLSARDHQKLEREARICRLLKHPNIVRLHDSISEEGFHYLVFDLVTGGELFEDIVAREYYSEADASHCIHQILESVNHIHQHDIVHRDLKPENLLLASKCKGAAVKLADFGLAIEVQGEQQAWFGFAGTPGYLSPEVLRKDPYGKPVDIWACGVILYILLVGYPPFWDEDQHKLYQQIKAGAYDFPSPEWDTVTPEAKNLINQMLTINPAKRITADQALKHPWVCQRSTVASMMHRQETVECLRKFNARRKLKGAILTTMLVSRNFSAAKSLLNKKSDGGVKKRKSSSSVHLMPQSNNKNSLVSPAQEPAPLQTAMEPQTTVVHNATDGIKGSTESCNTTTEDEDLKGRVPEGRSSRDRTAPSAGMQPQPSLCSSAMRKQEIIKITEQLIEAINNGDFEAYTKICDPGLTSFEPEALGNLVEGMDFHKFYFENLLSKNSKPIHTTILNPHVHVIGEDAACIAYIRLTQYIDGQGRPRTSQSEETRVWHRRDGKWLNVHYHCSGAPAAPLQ
T21 sequence (P29317 24-976): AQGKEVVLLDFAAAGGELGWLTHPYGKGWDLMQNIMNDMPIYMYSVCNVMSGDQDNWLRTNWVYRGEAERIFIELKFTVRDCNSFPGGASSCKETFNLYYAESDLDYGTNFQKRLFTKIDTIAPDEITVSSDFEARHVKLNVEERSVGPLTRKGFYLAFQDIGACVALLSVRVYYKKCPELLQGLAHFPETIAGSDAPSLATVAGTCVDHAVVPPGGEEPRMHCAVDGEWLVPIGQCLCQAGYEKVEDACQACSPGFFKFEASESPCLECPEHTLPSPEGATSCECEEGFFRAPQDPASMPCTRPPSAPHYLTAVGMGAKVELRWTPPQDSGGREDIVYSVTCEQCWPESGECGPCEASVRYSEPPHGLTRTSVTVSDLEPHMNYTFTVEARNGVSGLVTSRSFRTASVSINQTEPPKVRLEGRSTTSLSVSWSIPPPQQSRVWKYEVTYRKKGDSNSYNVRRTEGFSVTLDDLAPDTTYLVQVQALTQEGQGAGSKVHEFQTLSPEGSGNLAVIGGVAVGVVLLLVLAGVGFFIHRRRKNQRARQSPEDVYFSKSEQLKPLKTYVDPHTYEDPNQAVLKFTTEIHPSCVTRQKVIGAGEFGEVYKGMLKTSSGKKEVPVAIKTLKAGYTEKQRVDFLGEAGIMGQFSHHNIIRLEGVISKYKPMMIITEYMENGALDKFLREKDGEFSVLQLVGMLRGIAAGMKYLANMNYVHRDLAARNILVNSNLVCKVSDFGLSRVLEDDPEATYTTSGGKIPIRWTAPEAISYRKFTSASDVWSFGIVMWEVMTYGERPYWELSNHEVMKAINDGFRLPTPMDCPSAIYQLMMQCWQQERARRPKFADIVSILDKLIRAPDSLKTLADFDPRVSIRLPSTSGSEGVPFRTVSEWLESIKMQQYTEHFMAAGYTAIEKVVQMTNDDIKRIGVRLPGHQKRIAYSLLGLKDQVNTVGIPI
T38 sequence (Q14012 whole entry): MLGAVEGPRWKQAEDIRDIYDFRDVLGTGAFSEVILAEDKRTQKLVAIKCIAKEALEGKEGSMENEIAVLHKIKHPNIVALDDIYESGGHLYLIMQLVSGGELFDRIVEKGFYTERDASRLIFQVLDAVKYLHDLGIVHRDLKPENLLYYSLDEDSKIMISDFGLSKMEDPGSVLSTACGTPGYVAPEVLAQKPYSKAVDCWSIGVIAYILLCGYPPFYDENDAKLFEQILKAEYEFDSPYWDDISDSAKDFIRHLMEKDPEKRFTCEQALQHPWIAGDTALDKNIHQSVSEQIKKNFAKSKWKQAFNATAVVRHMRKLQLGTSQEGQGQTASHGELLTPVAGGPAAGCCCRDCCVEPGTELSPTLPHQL
T26 sequence (Q04912 25-1400): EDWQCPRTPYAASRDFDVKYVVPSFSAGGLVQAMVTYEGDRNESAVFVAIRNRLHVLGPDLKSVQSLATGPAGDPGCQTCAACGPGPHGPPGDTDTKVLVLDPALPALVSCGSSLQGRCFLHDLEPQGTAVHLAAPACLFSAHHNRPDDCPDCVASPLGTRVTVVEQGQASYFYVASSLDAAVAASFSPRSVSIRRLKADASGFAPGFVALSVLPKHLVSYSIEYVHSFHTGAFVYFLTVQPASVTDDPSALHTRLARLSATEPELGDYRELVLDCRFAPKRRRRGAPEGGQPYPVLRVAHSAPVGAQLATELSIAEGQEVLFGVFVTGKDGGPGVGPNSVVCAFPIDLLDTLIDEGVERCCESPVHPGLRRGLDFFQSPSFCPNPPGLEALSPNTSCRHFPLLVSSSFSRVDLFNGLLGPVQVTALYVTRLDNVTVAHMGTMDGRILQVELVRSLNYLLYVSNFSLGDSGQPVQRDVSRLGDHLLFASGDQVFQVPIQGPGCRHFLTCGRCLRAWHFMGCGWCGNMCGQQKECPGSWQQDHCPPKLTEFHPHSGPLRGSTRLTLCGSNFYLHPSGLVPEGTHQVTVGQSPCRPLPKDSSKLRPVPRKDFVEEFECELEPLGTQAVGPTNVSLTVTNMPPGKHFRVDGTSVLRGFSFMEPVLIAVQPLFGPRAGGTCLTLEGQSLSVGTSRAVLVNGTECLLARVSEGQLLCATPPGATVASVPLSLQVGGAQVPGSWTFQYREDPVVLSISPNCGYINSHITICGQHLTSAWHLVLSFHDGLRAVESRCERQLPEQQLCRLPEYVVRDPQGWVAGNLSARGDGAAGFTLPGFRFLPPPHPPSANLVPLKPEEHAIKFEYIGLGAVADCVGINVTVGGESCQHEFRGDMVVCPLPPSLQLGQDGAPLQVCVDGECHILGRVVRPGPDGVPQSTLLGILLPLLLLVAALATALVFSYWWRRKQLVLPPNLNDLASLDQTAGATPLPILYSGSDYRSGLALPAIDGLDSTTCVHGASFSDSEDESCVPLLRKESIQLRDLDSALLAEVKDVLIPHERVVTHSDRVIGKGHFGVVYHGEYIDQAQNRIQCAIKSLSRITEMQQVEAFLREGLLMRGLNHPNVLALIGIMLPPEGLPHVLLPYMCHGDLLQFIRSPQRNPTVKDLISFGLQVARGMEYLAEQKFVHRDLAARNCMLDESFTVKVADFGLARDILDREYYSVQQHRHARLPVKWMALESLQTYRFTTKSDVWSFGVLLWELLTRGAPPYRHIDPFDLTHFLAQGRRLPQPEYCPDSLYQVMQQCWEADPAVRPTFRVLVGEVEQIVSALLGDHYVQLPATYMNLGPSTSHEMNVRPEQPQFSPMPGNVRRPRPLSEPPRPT
T18 sequence (Q05397 whole entry): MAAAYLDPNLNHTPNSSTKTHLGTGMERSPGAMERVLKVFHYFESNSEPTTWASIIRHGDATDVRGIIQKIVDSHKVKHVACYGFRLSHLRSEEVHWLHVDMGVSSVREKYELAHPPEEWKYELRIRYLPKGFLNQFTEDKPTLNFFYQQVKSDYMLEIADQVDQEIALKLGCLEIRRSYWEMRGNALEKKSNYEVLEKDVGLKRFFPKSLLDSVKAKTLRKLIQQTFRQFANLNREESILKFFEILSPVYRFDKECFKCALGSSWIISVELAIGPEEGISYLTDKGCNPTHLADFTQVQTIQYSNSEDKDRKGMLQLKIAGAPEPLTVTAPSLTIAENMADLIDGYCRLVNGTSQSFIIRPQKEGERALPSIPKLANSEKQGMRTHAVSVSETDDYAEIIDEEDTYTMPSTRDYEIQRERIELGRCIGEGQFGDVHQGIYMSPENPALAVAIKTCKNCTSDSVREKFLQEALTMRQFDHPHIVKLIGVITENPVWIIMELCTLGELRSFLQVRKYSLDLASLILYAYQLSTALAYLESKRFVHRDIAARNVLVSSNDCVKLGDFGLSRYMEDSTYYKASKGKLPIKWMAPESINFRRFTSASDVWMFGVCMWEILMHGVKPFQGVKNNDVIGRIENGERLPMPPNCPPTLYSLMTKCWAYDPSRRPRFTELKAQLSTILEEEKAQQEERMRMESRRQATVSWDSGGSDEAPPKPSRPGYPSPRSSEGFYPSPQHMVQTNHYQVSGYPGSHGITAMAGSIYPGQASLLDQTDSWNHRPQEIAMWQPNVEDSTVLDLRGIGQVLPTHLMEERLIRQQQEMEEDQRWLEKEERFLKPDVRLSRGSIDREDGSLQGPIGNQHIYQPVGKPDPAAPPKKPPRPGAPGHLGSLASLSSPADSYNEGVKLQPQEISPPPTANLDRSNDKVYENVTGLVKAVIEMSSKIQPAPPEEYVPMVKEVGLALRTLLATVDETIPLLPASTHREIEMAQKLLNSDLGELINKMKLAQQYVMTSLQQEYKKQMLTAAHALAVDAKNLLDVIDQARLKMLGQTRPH
T22 sequence (P11309 whole entry): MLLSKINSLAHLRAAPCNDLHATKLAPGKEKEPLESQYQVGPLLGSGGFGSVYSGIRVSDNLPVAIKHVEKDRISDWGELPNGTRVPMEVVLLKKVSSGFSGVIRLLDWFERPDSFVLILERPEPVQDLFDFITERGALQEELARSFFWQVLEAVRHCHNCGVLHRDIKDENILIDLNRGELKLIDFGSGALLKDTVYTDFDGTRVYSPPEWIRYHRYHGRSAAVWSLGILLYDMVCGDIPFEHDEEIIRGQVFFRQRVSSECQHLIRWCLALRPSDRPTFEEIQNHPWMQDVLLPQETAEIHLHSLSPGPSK
T9 sequence (P49841 whole entry): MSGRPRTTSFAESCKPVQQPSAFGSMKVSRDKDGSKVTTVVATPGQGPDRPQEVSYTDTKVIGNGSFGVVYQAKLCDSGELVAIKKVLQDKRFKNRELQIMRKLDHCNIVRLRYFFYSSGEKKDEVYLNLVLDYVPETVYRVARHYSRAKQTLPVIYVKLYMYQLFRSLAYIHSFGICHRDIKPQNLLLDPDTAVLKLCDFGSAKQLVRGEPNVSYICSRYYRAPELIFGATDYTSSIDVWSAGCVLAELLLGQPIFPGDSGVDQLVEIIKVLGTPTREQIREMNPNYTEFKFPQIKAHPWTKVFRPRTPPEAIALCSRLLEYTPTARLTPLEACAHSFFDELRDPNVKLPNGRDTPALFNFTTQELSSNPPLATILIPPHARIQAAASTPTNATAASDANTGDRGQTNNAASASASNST

Avg POC [1]: 122% of control
Avg POC [2]: 106% of control
Avg POC [3]: 117% of control
Avg POC [4]: 88% of control
Avg POC [5]: 107.5% of control
Avg POC [6]: 106% of control
Avg POC [7]: 119.5% of control
Avg POC [8]: 121.5% of control
Avg POC [9]: 63% of control
Avg POC [10]: 110.5% of control
Avg POC [11]: 96% of control
Avg POC [12]: 98% of control
Avg POC [13]: 113% of control
Avg POC [14]: 115.5% of control
Avg POC [15]: 102.5% of control
Avg POC [16]: 99.5% of control
Avg POC [17]: 88.5% of control
Avg POC [18]: 107.5% of control
Avg POC [19]: 116% of control
Avg POC [20]: 93% of control
Avg POC [21]: 101% of control
Avg POC [22]: 134% of control
Avg POC [23]: 104% of control
Avg POC [24]: 90% of control
Avg POC [25]: 97% of control
Avg POC [26]: 105.5% of control
Avg POC [27]: 112% of control
Avg POC [28]: 108.5% of control
Avg POC [29]: 108% of control
Avg POC [30]: 103.5% of control
Avg POC [31]: 107.5% of control
Avg POC [32]: 111% of control
Avg POC [33]: 93.5% of control
Avg POC [34]: 110% of control
Avg POC [35]: 108% of control
Avg POC [36]: 100.5% of control
Avg POC [37]: 103.5% of control
Avg POC [38]: 104.5% of control
Avg POC [39]: 116% of control
Avg POC [40]: 117% of control
Avg POC [41]: 98.5% of control
Structure (SMILES): COCCN1C[C@@H](NC(=O)Nc2sc(C(C)C)nc2-c2ccccc2)[C@H](c2ccccc2)C1 [Example 48, 1-(2-isopropyl-4-phenylthiazol-5-yl)-3-((3S,4R)-1-(2-methoxyethyl)-4-phenylpyrrolidin-3-yl)urea]

From US9828360B2 (Array BioPharma Inc., priority 2012, dated 2017)
